Measured values: the CheMixHub drug solubility set

Experiment: xn = mol fraction of the nth substance listed, in the solute-free solvent

Cc1nc(C)c(C)nc1C + CCCCO + CC#N
solubility (g/100 g solution)
Settings | 273.15 K | 278.15 K | 283.15 K | 288.15 K | 293.15 K | 298.15 K | 303.15 K | 308.15 K | 313.15 K
x2 = 0.1 | 14 | 16.4 | 19.4 | 21.5 | 27.1 | 29.5 | 36.1 | 39.3 | 44.2
x2 = 0.2 | 18.3 | 21 | 23.4 | 27.1 | 31.6 | 34.6 | 39.8 | 43.8 | 48.2
x2 = 0.3 | 21.2 | 24.6 | 26.9 | 30.9 | 35.3 | 38.2 | 42.8 | 46.6 | 50.5
x2 = 0.4 | 22.8 | 25.9 | 28.7 | 33 | 37.8 | 40.3 | 44.8 | 48.5 | 52.8
x2 = 0.5 | 23.7 | 26.6 | 30.4 | 34 | 39.2 | 41.5 | 45.7 | 49.3 | 53.6
x2 = 0.6 | 24.5 | 26.1 | 30.6 | 34.2 | 39.4 | 41.6 | 45.7 | 50 | 53.9
x2 = 0.7 | 24.3 | 25.7 | 30.1 | 33.6 | 39.3 | 41.5 | 44.8 | 50.1 | 53.6
x2 = 0.8 | 23.5 | 24.9 | 29.4 | 33 | 38.4 | 41 | 43.8 | 49.6 | 53
x2 = 0.9 | 21.8 | 23.6 | 27.9 | 30.6 | 36.3 | 39.2 | 41.8 | 47.9 | 51.3

CCc1cccc2c3c([nH]c12)C(CC)(CC(=O)O)OCC3 (stereo not given) + CCCCOC(C)=O + CCCCCC
solubility (g/100 g solution)
Settings | 278.15 K | 283.15 K | 288.15 K | 293.15 K | 298.15 K | 303.15 K | 308.15 K | 313.15 K | 318.15 K | 323.15 K
x2 = 0.1568 | 0.52 | 0.667 | 0.805 | 0.936 | 1.08 | 1.23 | 1.41 | 1.62 | 1.86 | 2.07
x2 = 0.3309 | 3.1 | 3.48 | 3.93 | 4.43 | 5 | 5.64 | 6.39 | 7.21 | 8.15 | 9.12
x2 = 0.5268 | 4.5 | 5.13 | 5.79 | 6.5 | 7.27 | 8.13 | 9.13 | 10.2 | 11.5 | 12.9
x2 = 0.7478 | 7.51 | 8.4 | 9.35 | 10.4 | 11.5 | 12.8 | 14.2 | 15.8 | 17.5 | 19.4

CCc1cccc2c3c([nH]c12)C(CC)(CC(=O)O)OCC3 (stereo not given) + CCCO + CCCCCC
solubility (g/100 g solution)
Settings | 278.15 K | 283.15 K | 288.15 K | 293.15 K | 298.15 K | 303.15 K | 308.15 K | 313.15 K | 318.15 K | 323.15 K
x2 = 0.2645 | 3.73 | 4.25 | 4.84 | 5.55 | 6.34 | 7.19 | 8.14 | 9.21 | 10.4 | 11.7
x2 = 0.4889 | 7.29 | 8.31 | 9.43 | 10.8 | 12.2 | 14 | 15.9 | 18.1 | 20.6 | 23.4
x2 = 0.6827 | 10.4 | 11.8 | 13.4 | 15.2 | 17 | 19.4 | 22.2 | 25.3 | 28.6 | 31.9
x2 = 0.8514 | 12.8 | 14.4 | 16.5 | 18.7 | 21.5 | 24.5 | 27.9 | 31.4 | 35.1 | 38.5

O=C(O)c1ccc(-n2nc(-c3ccccc3O)nc2-c2ccccc2O)cc1 + CCO + CC#N
298.15 K
Settings | solubility (g/100 g solution)
x2 = 0.09009 | 4.09
x2 = 0.1822 | 7.7
x2 = 0.2764 | 11.7
x2 = 0.3727 | 15.7
x2 = 0.4712 | 18.8
x2 = 0.572 | 21.2
x2 = 0.6752 | 21.4
x2 = 0.7809 | 19.3
x2 = 0.8891 | 15.9

O=CC(O)C(O)C(O)CO (stereo not given) + CCO + CCCCCC
solubility (g/100 g solution)
Settings | x2 = 0.1 | x2 = 0.2 | x2 = 0.3 | x2 = 0.4 | x2 = 0.5 | x2 = 0.6 | x2 = 0.7 | x2 = 0.8 | x2 = 0.9
283.15 K | 0.0708 | 0.0912 | 0.139 | 0.18 | 0.281 | 0.514 | 0.692 | 1.16 | 1.73
293.15 K | 0.0738 | 0.111 | 0.171 | 0.268 | 0.425 | 0.715 | 1.07 | 1.56 | 2.52
303.15 K | 0.0959 | 0.119 | 0.186 | 0.375 | 0.676 | 1.1 | 1.5 | 2.39 | 4.09
313.15 K | 0.117 | 0.179 | 0.269 | 0.599 | 0.925 | 1.8 | 2.44 | 4.02 | 6.9
323.15 K | 0.147 | 0.234 | 0.317 | 0.98 | 1.54 | 2.72 | 3.96 | 6.76 | 12.3

O=C(O)c1ccc(-n2nc(-c3ccccc3O)nc2-c2ccccc2O)cc1 + CCO + CO
298.15 K
Settings | solubility (g/100 g solution)
x2 = 0.07174 | 12.7
x2 = 0.1481 | 12.9
x2 = 0.2296 | 12.8
x2 = 0.3168 | 12.7
x2 = 0.4102 | 12.5
x2 = 0.5106 | 12.2
x2 = 0.6188 | 11.9
x2 = 0.7356 | 11.5
x2 = 0.8623 | 11

O=CC(O)C(O)C(O)CO (stereo not given) + CCO + ClCCl
solubility (g/100 g solution)
Settings | x2 = 0.1 | x2 = 0.2 | x2 = 0.3 | x2 = 0.4 | x2 = 0.5 | x2 = 0.6 | x2 = 0.7 | x2 = 0.8 | x2 = 0.9
283.15 K | 0.222 | 0.374 | 0.669 | 1.02 | 1.41 | 1.64 | 1.88 | 2.05 | 2.24
288.15 K | 0.227 | 0.458 | 0.813 | 1.26 | 1.81 | 2.12 | 2.32 | 2.57 | 2.85
293.15 K | 0.254 | 0.522 | 1.1 | 1.55 | 2.15 | 2.55 | 2.96 | 3.23 | 3.55
298.15 K | 0.264 | 0.645 | 1.28 | 1.9 | 2.77 | 3.18 | 3.69 | 4.2 | 4.58
303.15 K | 0.325 | 0.776 | 1.43 | 2.28 | 3.27 | 4.09 | 4.72 | 5.4 | 5.99

O=c1cc(-c2ccccc2)oc2cc(O)c(O)c(O)c12 + CCO + O
solubility (g/100 g solution)
Settings | 283.15 K | 288.15 K | 293.15 K | 298.15 K | 303.15 K | 308.15 K | 313.15 K | 318.15 K | 323.15 K | 328.15 K
x2 = 0.2 | 0.0427 | 0.0499 | 0.0671 | 0.0809 | 0.0932 | 0.105 | 0.128 | 0.157 | 0.179 | 0.228
x2 = 0.4 | 0.194 | 0.221 | 0.262 | 0.314 | 0.372 | 0.444 | 0.554 | 0.643 | 0.73 | 0.887
x2 = 0.6 | 0.413 | 0.455 | 0.52 | 0.587 | 0.663 | 0.795 | 0.919 | 1.07 | 1.23 | 1.46
x2 = 0.8 | 0.474 | 0.525 | 0.574 | 0.634 | 0.728 | 0.831 | 0.939 | 1.08 | 1.27 | 1.51

CC(C)Oc1ccc2c(=O)c(-c3ccccc3)coc2c1 + CN1CCCC1=O + CCO
solubility (g/100 g solution)
Settings | 278.15 K | 283.15 K | 288.15 K | 293.15 K | 298.15 K | 303.15 K | 308.15 K | 313.15 K | 318.15 K | 323.15 K
x2 = 0.1038 | 1.5 | 1.87 | 2.26 | 2.85 | 3.5 | 4.39 | 5.46 | 6.91 | 8.81 | 10.8
x2 = 0.2359 | 2.85 | 3.39 | 4.07 | 4.91 | 6.03 | 7.33 | 8.92 | 11 | 13.1 | 15.9
x2 = 0.41 | 5.57 | 6.67 | 7.63 | 9.21 | 10.9 | 12.9 | 15.3 | 17.8 | 21 | 24.9
x2 = 0.6471 | 9.68 | 11 | 12.7 | 14.6 | 16.8 | 19.3 | 22.1 | 25.1 | 28.4 | 32.1

CC(C)Oc1ccc2c(=O)c(-c3ccccc3)coc2c1 + CN(C)C=O + CCO
solubility (g/100 g solution)
Settings | 278.15 K | 283.15 K | 288.15 K | 293.15 K | 298.15 K | 303.15 K | 308.15 K | 313.15 K | 318.15 K | 323.15 K
x2 = 0.1358 | 1.29 | 1.64 | 2.07 | 2.55 | 3.28 | 4.15 | 5.33 | 6.87 | 8.61 | 11
x2 = 0.2956 | 2.42 | 3 | 3.68 | 4.58 | 5.6 | 6.95 | 8.67 | 10.9 | 13.3 | 16.5
x2 = 0.4859 | 3.8 | 4.83 | 5.92 | 7.22 | 8.72 | 10.4 | 12.9 | 15.3 | 18.8 | 22.7
x2 = 0.716 | 5.06 | 6.49 | 7.97 | 9.74 | 11.7 | 14.2 | 17.1 | 20.4 | 24 | 28.5

N#CC(c1ccc(Cl)cc1)c1c(Cl)cc(-n2ncc(=O)[nH]c2=O)cc1Cl (stereo not given) + CN(C)C=O + CCO
solubility (g/100 g solution)
Settings | 283.15 K | 288.15 K | 293.15 K | 298.15 K | 303.15 K | 308.15 K | 313.15 K | 318.15 K | 323.15 K
x2 = 0.1361 | 3.28 | 3.86 | 4.52 | 5.25 | 6.05 | 6.91 | 7.87 | 8.89 | 9.99
x2 = 0.2959 | 5.7 | 6.56 | 7.46 | 8.51 | 9.59 | 10.8 | 12 | 13.4 | 14.7
x2 = 0.486 | 8.24 | 9.37 | 10.4 | 11.7 | 12.9 | 14.2 | 15.7 | 17.2 | 18.8
x2 = 0.716 | 10.6 | 11.8 | 12.9 | 14.3 | 15.6 | 17 | 18.5 | 20 | 21.6

Cc1nc(C)c(C)nc1C + CO + CC#N
solubility (g/100 g solution)
Settings | 273.15 K | 278.15 K | 283.15 K | 288.15 K | 293.15 K | 298.15 K | 303.15 K | 308.15 K | 313.15 K
x2 = 0.1 | 12.7 | 15 | 18.1 | 21.4 | 25.1 | 28.9 | 33.9 | 37.6 | 44.6
x2 = 0.2 | 17.3 | 20.5 | 23.4 | 26.7 | 30.8 | 34.9 | 40.1 | 43.5 | 50.5
x2 = 0.3 | 21.2 | 24.5 | 28.2 | 31.8 | 36.5 | 40.2 | 46 | 49.2 | 55.7
x2 = 0.4 | 25.6 | 28.9 | 32.5 | 36.4 | 41 | 44.3 | 50 | 53.8 | 60.4
x2 = 0.5 | 28.6 | 32 | 36.6 | 39.9 | 45.1 | 48.2 | 53.4 | 57.3 | 63.5
x2 = 0.6 | 31.3 | 34.5 | 39.2 | 42.7 | 47.6 | 51.5 | 56.2 | 60.5 | 67.4
x2 = 0.7 | 33.6 | 36.1 | 40.8 | 44.6 | 49.4 | 53.8 | 59 | 63.1 | 70
x2 = 0.8 | 34.6 | 37.3 | 42.2 | 45.7 | 50.8 | 54.8 | 61.3 | 64.9 | 71.2
x2 = 0.9 | 35 | 37.6 | 42.7 | 45.6 | 51 | 54.9 | 61.9 | 65.3 | 70.7

O=C(O)c1ccc(-n2nc(-c3ccccc3O)nc2-c2ccccc2O)cc1 + CO + CC#N
298.15 K
Settings | solubility (g/100 g solution)
x2 = 0.1246 | 4.33
x2 = 0.2426 | 7.73
x2 = 0.3544 | 11.2
x2 = 0.4606 | 14.2
x2 = 0.5616 | 16.4
x2 = 0.6577 | 17.6
x2 = 0.7493 | 18
x2 = 0.8367 | 17.2
x2 = 0.9202 | 15.3
